Test results published in patent US20110150772A1, “MODULATORS OF CARNITINE OCTANOYLTRANSFERASE IN THE TREATMENT OF ACNE, OF SEBORRHOEIC DERMATITIS OR OF HYPERSEBORRHOEA” (GALDERMA RESEARCH & DEVELOPMENT, priority 2008, published 2011).

Legend:
CROT gene expression = assay: Expression of CROT in rat epidermal split containing sebaceous glands after topical PPARgamma agonist, real-time PCR; type: in vivo; conditions: topical 1% in acetone, female Fuzzy rats, standardized to 18S, versus carrier group; for CROT Relative induction - Kinetics (Hours) 0: 0 hours; for CROT Relative induction - Kinetics (Hours) 8: 8 hours; for CROT Relative induction - Kinetics (Hours) 24: 24 hours; for CROT Relative induction - Kinetics (Hours) 48: 48 hours; for CROT Relative induction - Kinetics (Hours) 96: 96 hours
Text: Animals: Species: rat • Strain: Ico: Hsd: FUZZY-fz • Gender: female • Age: 10 weeks
Number per batch: 40 (8 animals per group)
Treatment: Route of administration: topical • Compound/batch: PPARgamma agonists:
A: 5-{4-[2-(methylpyridin-2-ylamino)ethoxy]-benzyl}thiazolidine-2,4-dione
B: (2-methoxyethoxymethoxy)naphthalene-2-carboxylic acid [4′-(2,4-dioxothiazolidin-5-ylmethyl)biphenyl-3-ylmethyl]methylamide or rosiglitazone
C: (S)-2-ethoxy-3-{4-[6-(3-heptyl-1-methyl-ureido)pyridin-2-yl]phenyl}propionic acid • Doses: 1% • Carrier: acetone (001) • Duration 96 hours
Method of evaluation: The animals are weighed at the beginning and at the end of the study. Skin biopsies are taken (6 samples of skin excised per rat) in order to analyse the expression of the genes (RNA extraction, reverse transcriptase and real-time PCR). The samples are stored overnight at 4° C. before incubation in 1M sodium bromide (NaBr) for 2 hours at 37° C. After incubation, the samples are separated into epidermis or dermis. The epidermal samples are stored at […]. Under these conditions, the sebaceous glands are in the epidermal split. PCRs are carried out, beginning with the CNAs originating from the epidermal splits containing sebaceous glands from control rats or rats treated with a PPARγ agonist: the mRNA is extracted using a column and quantified. The quality of the mRNAs is measured and is represented by the 18S/28S ratio. The results are standardized with respect to 18S, expressed as relative induction versus untreated animals (carrier group). The statistical analysis is obtained using internal software based on a modified Monte Carlo statistical analysis.

[1] = tested on: CROT (carnitine O-octanoyltransferase) gene expression; assay: Expression of CROT in Fuzzy rat epidermal split after 8 days of topical treatment, Affymetrix transcriptome analysis; type: in vivo; conditions: female Fuzzy rats, topical 1% once a day for 8 days, Affymetrix 1368426_at, control condition 601
Method: Fuzzy rat epidermal split expression data
The studies are carried out in female Fuzzy rats (Hsd: Fuzzy-fz) ten weeks old at the beginning of the study. The animals are treated at a dose of 1% (PPARg agonist rosiglitazone in solution in acetone) once a day for 8 days. Two hours after the final treatment, the animals are sacrificed by euthanasia and the skin on the back is removed. After incubation in dispase, the epidermis carrying the sebaceous glands is detached from the dermis (epidermal split). After grinding of the samples, the mRNA is prepared using Qiagen columns, in accordance with the supplier's instructions. The material thus prepared is subjected to large-scale transcriptome analysis on an Affymetrix platform. The data are subsequently standardized and, after statistical analysis, the results produced are expressed in arbitrary expression units (see below) accompanied, for each piece of data, by a statistical value for presence of the transcript (presence=1; absence=0).
Table 2: Measurement of the Expression of CROT in an Epidermal Split after 8 Days of Topical Treatment of FUZZY Rat Females with a PPARγ Agonist (Rosiglitazone) at 1%

SMILES | CROT Relative induction - Kinetics (Hours) 0 (CROT gene expression) | CROT Relative induction - Kinetics (Hours) 8 (CROT gene expression) | CROT Relative induction - Kinetics (Hours) 24 (CROT gene expression) | CROT Relative induction - Kinetics (Hours) 48 (CROT gene expression) | CROT Relative induction - Kinetics (Hours) 96 (CROT gene expression) | Expression after treatment with 1% rosiglitazone [1]
CN(CCOc1ccc(CC2SC(=O)NC2=O)cc1)c1ccccn1 (centres unmarked) [A, 5-{4-[2-(methylpyridin-2-ylamino)ethoxy]-benzyl}thiazolidine-2,4-dione] | 1 | 2.24 | 2.16 | 1.54 | 0.94 | 
CCCCCCCNC(=O)N(C)c1cccc(-c2ccc(C[C@H](OCC)C(=O)O)cc2)n1 [C, (S)-2-ethoxy-3-{4-[6-(3-heptyl-1-methyl-ureido)pyridin-2-yl]phenyl}propionic acid] | 1 | 0.40 | 0.52 | 0.36 | 0.20 | 
CN(CCOc1ccc(CC2SC(=O)NC2=O)cc1)c1ccccn1 (centres unmarked) [rosiglitazone] |  |  |  |  |  | 742 arbitrary expression units
